Among the data in PubChem BioAssay AID248 (DTP/NCI, 2004) are T/C values, retold here.

In the test the test system is L1210 leukemia ip in BDF1 mice, survival T/C. As to the kind of experiment: NCI In Vivo Anticancer Drug Screen. Data for tumor model L1210 Leukemia (intraperitoneal) in B6D2F1 (BDF1) mice. Particulars: higher = longer survival. In a few lines: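 Ratio derived from survival: compound-dosed mice over vehicle-dosed mice, all bearing a transplantable tumor.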
Where [1] appears, read: endpoint: mean survival time, dose: 100.0 mg/kg/injection, schedule: Q04DX003 (ip), vehicle: Klucel (hydroxypropylcellulose) (HPC).
Where [2] appears, read: endpoint: mean survival time, dose: 200.0 mg/kg/injection, schedule: Q04DX003 (ip), vehicle: Klucel (hydroxypropylcellulose) (HPC).

Structures are written as SMILES. Several values for one entry are separate records, joined by “and”; a condition that tells them apart may be missing. Identical values can stand only once. Inconclusive results and toxic doses are left out.

Turning to `CC1(C)c2ccccc2C(O)(CCl)c2ccccc21`, the T/C is 104 % of control under setting [1]; 112 % of control under setting [2]; 94 % of control (endpoint: mean survival time, dose: 400.0 mg/kg/injection, schedule: Q04DX003 (ip), vehicle: Klucel (hydroxypropylcellulose) (HPC)).

For the compound `CNC(=O)N(C)c1cc(N(C)C)nc(OC)n1`, the T/C reads like this: (endpoint: mean survival time, dose: 5.0 mg/kg/injection, schedule: Q01DX009 (ip), vehicle: Klucel (hydroxypropylcellulose) (HPC)) 98 % of control; (endpoint: mean survival time, dose: 10.0 mg/kg/injection, schedule: Q01DX009 (ip), vehicle: Klucel (hydroxypropylcellulose) (HPC)) 94 % of control; (endpoint: mean survival time, dose: 20.0 mg/kg/injection, schedule: Q01DX009 (ip), vehicle: Klucel (hydroxypropylcellulose) (HPC)) 94 % of control.

In the case of `O=C(O)CCCc1ccc(N(CCCl)CCCl)cc1`, the T/C is 101 % of control and 104 % of control (endpoint: mean survival time, dose: 0.5 mg/kg/injection, schedule: Q01DX009 (ip), vehicle: saline with Tween-80); 96 % of control and 106 % of control (endpoint: mean survival time, dose: 1.0 mg/kg/injection, schedule: Q01DX009 (ip), vehicle: saline with Tween-80); 95 % of control and 105 % of control (endpoint: mean survival time, dose: 1.0 mg/kg/injection, schedule: Q04DX002 (ip), vehicle: saline with Tween-80); 107 % of control (endpoint: mean survival time, dose: 1.0 mg/kg/injection, schedule: Q12HX018 (ip), vehicle: saline with Tween-80); 103 % of control (endpoint: mean survival time, dose: 1.81 mg/kg/injection, schedule: Q01DX Z (ip), vehicle: carboxymethylcellulose (CMC)); 103 % of control and 107 % of control (endpoint: mean survival time, dose: 2.0 mg/kg/injection, schedule: Q01DX009 (ip), vehicle: saline with Tween-80). Moreover, the T/C reads like this: (endpoint: mean survival time, dose: 2.0 mg/kg/injection, schedule: Q04DX002 (ip), vehicle: saline with Tween-80) 100 % of control and 105 % of control; (endpoint: mean survival time, dose: 2.0 mg/kg/injection, schedule: Q08HX027 (ip), vehicle: acetone) 120 % of control; (endpoint: mean survival time, dose: 2.0 mg/kg/injection, schedule: Q12HX018 (ip), vehicle: acetone) 110 % of control and 111 % of control and 121 % of control; (endpoint: mean survival time, dose: 2.0 mg/kg/injection, schedule: Q12HX018 (ip), vehicle: saline with Tween-80) 115 % of control; (endpoint: mean survival time, dose: 2.5 mg/kg/injection, schedule: Q01DX001 (ip), vehicle: carboxymethylcellulose (CMC)) 112 % of control; (endpoint: mean survival time, dose: 3.62 mg/kg/injection, schedule: Q01DX Z (ip), vehicle: carboxymethylcellulose (CMC)) 106 % of control. The T/C is 112 % of control and 123 % of control (endpoint: mean survival time, dose: 4.0 mg/kg/injection, schedule: Q01DX009 (ip), vehicle: acetone); 100 % of control and 115 % of control (endpoint: mean survival time, dose: 4.0 mg/kg/injection, schedule: Q01DX009 (ip), vehicle: saline with Tween-80); 96 % of control and 102 % of control (endpoint: mean survival time, dose: 4.0 mg/kg/injection, schedule: Q04DX002 (ip), vehicle: saline with Tween-80); 115 % of control (endpoint: mean survival time, dose: 4.0 mg/kg/injection, schedule: Q12HX018 (ip), vehicle: Klucel (hydroxypropylcellulose) (HPC)); 122 % of control (endpoint: mean survival time, dose: 4.0 mg/kg/injection, schedule: Q12HX018 (ip), vehicle: acetone); 112 % of control and 121 % of control (endpoint: mean survival time, dose: 4.0 mg/kg/injection, schedule: Q12HX018 (ip), vehicle: other). For the same compound, the T/C runs as follows: (endpoint: mean survival time, dose: 4.0 mg/kg/injection, schedule: Q12HX018 (ip), vehicle: saline with Tween-80) 124 % of control; (endpoint: mean survival time, dose: 5.0 mg/kg/injection, schedule: Q01DX001 (ip), vehicle: carboxymethylcellulose (CMC)) 103 % of control; (endpoint: mean survival time, dose: 5.0 mg/kg/injection, schedule: Q08HX027 (ip), vehicle: acetone) 90 % of control; (endpoint: mean survival time, dose: 5.8 mg/kg/injection, schedule: Q01DX Z (ip), vehicle: carboxymethylcellulose (CMC)) 101 % of control and 103 % of control; (endpoint: mean survival time, dose: 6.0 mg/kg/injection, schedule: Q12HX018 (ip), vehicle: Klucel (hydroxypropylcellulose) (HPC)) 116 % of control; (endpoint: mean survival time, dose: 6.0 mg/kg/injection, schedule: Q12HX018 (ip), vehicle: acetone) 162 % of control. Besides, the T/C is, setting by setting: (endpoint: mean survival time, dose: 6.0 mg/kg/injection, schedule: Q12HX018 (ip), vehicle: other) 120 % of control; (endpoint: mean survival time, dose: 6.0 mg/kg/injection, schedule: Q12HX018 (ip), vehicle: saline with Tween-80) 120 % of control; (endpoint: mean survival time, dose: 6.25 mg/kg/injection, schedule: Q01DX Z (ip), vehicle: carboxymethylcellulose (CMC)) 113 % of control; (endpoint: mean survival time, dose: 7.25 mg/kg/injection, schedule: Q01DX Z (ip), vehicle: carboxymethylcellulose (CMC)) 98 % of control and 103 % of control and 120 % of control; (endpoint: mean survival time, dose: 8.0 mg/kg/injection, schedule: Q01DX009 (ip), vehicle: saline with Tween-80) 115 % of control and 116 % of control; (endpoint: mean survival time, dose: 8.0 mg/kg/injection, schedule: Q04DX002 (ip), vehicle: saline with Tween-80) 96 % of control and 98 % of control. The T/C is 114 % of control and 118 % of control (endpoint: mean survival time, dose: 8.0 mg/kg/injection, schedule: Q12HX018 (ip), vehicle: Klucel (hydroxypropylcellulose) (HPC)); 100 % of control (endpoint: mean survival time, dose: 8.0 mg/kg/injection, schedule: Q12HX018 (ip), vehicle: acetone); 118 % of control (endpoint: mean survival time, dose: 8.0 mg/kg/injection, schedule: Q12HX018 (ip), vehicle: saline with Tween-80); 100 % of control and 114 % of control (endpoint: mean survival time, dose: 9.66 mg/kg/injection, schedule: Q01DX Z (ip), vehicle: carboxymethylcellulose (CMC)); 109 % of control (endpoint: mean survival time, dose: 10.0 mg/kg/injection, schedule: Q01DX001 (ip), vehicle: carboxymethylcellulose (CMC)); 88 % of control (endpoint: mean survival time, dose: 10.0 mg/kg/injection, schedule: Q12HX018 (ip), vehicle: acetone). The T/C was 122 % of control (endpoint: mean survival time, dose: 12.0 mg/kg/injection, schedule: Q01DX009 (ip), vehicle: acetone); 103 % of control and 121 % of control (endpoint: mean survival time, dose: 12.0 mg/kg/injection, schedule: Q12HX018 (ip), vehicle: Klucel (hydroxypropylcellulose) (HPC)); 109 % of control (endpoint: mean survival time, dose: 12.0 mg/kg/injection, schedule: Q12HX018 (ip), vehicle: saline with Tween-80); 110 % of control (endpoint: mean survival time, dose: 12.5 mg/kg/injection, schedule: Q01DX Z (ip), vehicle: carboxymethylcellulose (CMC)); 114 % of control and 117 % of control (endpoint: mean survival time, dose: 14.5 mg/kg/injection, schedule: Q01DX Z (ip), vehicle: carboxymethylcellulose (CMC)); 101 % of control and 115 % of control (endpoint: mean survival time, dose: 16.0 mg/kg/injection, schedule: Q01DX009 (ip), vehicle: acetone). Moreover, the T/C reads like this: (endpoint: mean survival time, dose: 16.0 mg/kg/injection, schedule: Q01DX009 (ip), vehicle: saline with Tween-80) 121 % of control; (endpoint: mean survival time, dose: 16.0 mg/kg/injection, schedule: Q04DX002 (ip), vehicle: saline with Tween-80) 100 % of control and 108 % of control; (endpoint: mean survival time, dose: 16.0 mg/kg/injection, schedule: Q12HX018 (ip), vehicle: Klucel (hydroxypropylcellulose) (HPC)) 92 % of control; (endpoint: mean survival time, dose: 18.0 mg/kg/injection, schedule: Q01DX001 (ip), vehicle: carboxymethylcellulose (CMC)) 105 % of control; (endpoint: mean survival time, dose: 20.0 mg/kg/injection, schedule: Q01DX001 (ip), vehicle: carboxymethylcellulose (CMC)) 115 % of control; (endpoint: mean survival time, dose: 20.0 mg/kg/injection, schedule: Q01DX009 (ip), vehicle: acetone) 92 % of control. The T/C (endpoint: mean survival time, dose: 20.0 mg/kg/injection, schedule: Q12HX018 (ip), vehicle: Klucel (hydroxypropylcellulose) (HPC)) is 89 % of control; the T/C (endpoint: mean survival time, dose: 25.0 mg/kg/injection, schedule: Q01DX Z (ip), vehicle: carboxymethylcellulose (CMC)) is 116 % of control; the T/C (endpoint: mean survival time, dose: 27.0 mg/kg/injection, schedule: Q01DX001 (ip), vehicle: carboxymethylcellulose (CMC)) was 109 % of control; the T/C (endpoint: mean survival time, dose: 27.0 mg/kg/injection, schedule: Q01DX001 (ip), vehicle: saline with Tween-80) is 113 % of control and 115 % of control; the T/C (endpoint: mean survival time, dose: 31.0 mg/kg/injection, schedule: Q04DX002 (ip), vehicle: saline with Tween-80) was 108 % of control and 109 % of control; the T/C (endpoint: mean survival time, dose: 40.0 mg/kg/injection, schedule: Q01DX001 (ip), vehicle: carboxymethylcellulose (CMC)) is 115 % of control. Also, the T/C by setting is: (endpoint: mean survival time, dose: 41.0 mg/kg/injection, schedule: Q01DX001 (ip), vehicle: carboxymethylcellulose (CMC)) 114 % of control; (endpoint: mean survival time, dose: 41.0 mg/kg/injection, schedule: Q01DX001 (ip), vehicle: saline with Tween-80) 115 % of control and 121 % of control; (endpoint: median survival time, dose: 3.0 mg/kg/injection, schedule: Q01DX009 (ip), vehicle: saline) 99 % of control; (endpoint: median survival time, dose: 6.0 mg/kg/injection, schedule: Q01DX009 (ip), vehicle: saline) 105 % of control; (endpoint: median survival time, dose: 12.0 mg/kg/injection, schedule: Q01DX009 (ip), vehicle: saline) 96 % of control; (endpoint: median survival time, dose: 24.0 mg/kg/injection, schedule: Q01DX009 (ip), vehicle: saline) 89 % of control.

Regarding `Cc1ccc(S(=O)(=O)OCCOS(=O)(=O)c2ccc(C)cc2)cc1`, the T/C under setting [1] was 90 % of control and the T/C under setting [2] was 87 % of control.
